The values that follow come from patent US20100016401A1, “3-AZA-BICYCLO[3.1.0]HEXANE DERIVATIVES” (Actelion Phamaceuticals Ltd., priority 2006, published 2010).

Experiment [1] concerns the target T1, human orexin-2 receptor (Homo sapiens, UniProt O43614).
T1 construct: expressed in transfected cells; host or cells: CHO (Chinese hamster ovary) cells, grown under G418 selection
T1 sequence (O43614 1-444): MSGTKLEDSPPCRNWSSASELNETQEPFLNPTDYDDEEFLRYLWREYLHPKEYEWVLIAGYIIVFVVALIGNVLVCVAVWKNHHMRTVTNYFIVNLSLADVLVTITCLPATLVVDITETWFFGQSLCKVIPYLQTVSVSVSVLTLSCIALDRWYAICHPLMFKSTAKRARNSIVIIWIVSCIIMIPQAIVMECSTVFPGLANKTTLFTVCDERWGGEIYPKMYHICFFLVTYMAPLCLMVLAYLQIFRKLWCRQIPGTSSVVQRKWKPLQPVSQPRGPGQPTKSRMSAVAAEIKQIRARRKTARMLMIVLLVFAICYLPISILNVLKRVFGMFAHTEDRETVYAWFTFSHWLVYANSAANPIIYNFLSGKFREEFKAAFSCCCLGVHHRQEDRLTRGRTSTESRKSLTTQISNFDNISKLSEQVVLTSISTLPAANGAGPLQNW
The experiment can be described thus: Intracellular calcium measurements (FLIPR), orexin receptor antagonistic activity, OX2. In kind it is cell-based. The note with it: CHO cells expressing human orexin-2 receptor, 10 nM orexin-A as agonist. On the procedure: (§1) The orexin receptor antagonistic activity of the compounds of formula (I) is determined in accordance with the following experimental method.
(§2) Intracellular Calcium Measurements:
(§3) Chinese hamster ovary (CHO) cells expressing the human orexin-1 receptor and the human orexin-2 receptor, respectively, are grown in culture medium (Ham F-12 with L-Glutamine) containing 300 μg/ml G418, 100 U/ml penicillin, 100 μg/ml streptomycin and 10% inactivated fetal calf serum (FCS). The cells are seeded at 80,000 cells/well into 96-well black clear bottom sterile plates (Costar) which have been precoated with 1% gelatine in Hanks' Balanced Salt Solution (HBSS). All reagents are from Gibco BRL. The seeded plates are incubated overnight at 37° C. in 5% CO2.
(§4) Human orexin-A as an agonist is prepared as 1 mM stock solution in MeOH: water (1:1), diluted in HBSS containing 0.1% bovine serum albumin (BSA) and 2 mM HEPES for use in the assay at a final concentration of 10 nM.
(§5) Antagonists are prepared as 10 mM stock solution in DMSO, then diluted in 96-well plates, first in DMSO, then in HBSS containing 0.1% bovine serum albumin (BSA) and 2 mM HEPES.
(§6) On the day of the assay, 100 μl of loading medium (HBSS containing 1% FCS, 2 mM HEPES, 5 mM probenecid (Sigma) and 3 μM of the fluorescent calcium indicator fluo-3 AM (1 mM stock solution in DMSO with 10% pluronic acid) (Molecular Probes) is added to each well.
(§7) The 96-well plates are incubated for 60 min at 37° C. in 5% CO2. The loading solution is then aspirated and cells are washed 3 times with 200 μl HBSS containing 2.5 mM probenecid, 0.1% BSA, 2 mM HEPES. 100 μl of that same buffer is left in each well.
(§8) Within the Fluorescent Imaging Plate Reader (FLIPR, Molecular Devices), antagonists are added to the plate in a volume of 50 μl, incubated for 20 min and finally 100 μl of agonist is added. Fluorescence is measured for each well at 1 second intervals, and the height of each fluorescence peak is compared to the height of the fluorescence peak induced by 10 nM orexin-A with buffer in place of antagonist.

Experiment [2] concerns the target T2, human orexin-1 receptor (Homo sapiens, UniProt O43613).
T2 construct: expressed in transfected cells; host or cells: CHO (Chinese hamster ovary) cells, grown under G418 selection
T2 sequence (O43613 1-425): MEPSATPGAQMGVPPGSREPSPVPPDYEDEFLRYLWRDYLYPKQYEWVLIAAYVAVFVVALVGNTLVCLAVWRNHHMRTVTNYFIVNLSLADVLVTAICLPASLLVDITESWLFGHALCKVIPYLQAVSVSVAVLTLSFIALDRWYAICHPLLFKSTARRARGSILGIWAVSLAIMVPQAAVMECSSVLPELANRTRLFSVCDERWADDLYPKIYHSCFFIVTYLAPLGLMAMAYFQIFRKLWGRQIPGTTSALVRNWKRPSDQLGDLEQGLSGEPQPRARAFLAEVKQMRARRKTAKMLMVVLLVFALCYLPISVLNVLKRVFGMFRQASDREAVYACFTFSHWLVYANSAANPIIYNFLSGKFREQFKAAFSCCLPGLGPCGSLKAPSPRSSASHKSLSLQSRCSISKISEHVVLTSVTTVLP
Description: Intracellular calcium measurements (FLIPR), orexin receptor antagonistic activity, OX1. The note with it: CHO cells expressing human orexin-1 receptor, 10 nM orexin-A as agonist. In kind it is cell-based. On the procedure:
as §1, §2, §3, §4, §5, §6, §7, §8

Broadly, the IC50 is the concentration that gives 50% inhibition. In the case of `Cc1cccc(-c2sc(C)nc2C(=O)N2C[C@H]3C[C@H]3[C@H]2CNC(=O)c2cccc(C(F)(F)F)c2)c1` (relative stereo) [Example 125, N-[(1R*,2S*,5S*)-3-(2-Methyl-5-m-tolyl-thiazole-4-carbonyl)-3-aza-bicyclo[3.1.0]hex-2-ylmethyl]-3-trifluoromethyl-benzamide], the figures for the IC50 in experiment [1] and in experiment [2] were 102 nM and 98 nM, respectively.

Regarding `Cc1cccc(-c2sc(C)nc2C(=O)N2C[C@H]3C[C@H]3[C@H]2CNC(=O)c2ccc(F)cc2Cl)c1` (relative stereo) [Example 141, 2-Chloro-4-fluoro-N-[(1R*,2S*,5S*)-3-(2-methyl-5-m-tolyl-thiazole-4-carbonyl)-3-aza-bicyclo[3.1.0]hex-2-ylmethyl]-benzamide], the IC50 in experiment [1] stood at 14 nM; in experiment [2] it was 76 nM.

With `Cc1cccc(-c2sc(C)nc2C(=O)N2C[C@H]3C[C@H]3[C@H]2CNC(=O)c2cccc(C)c2Cl)c1` (relative stereo) [Example 143, 2-Chloro-3-methyl-N-[(1R*,2S*,5S*)-3-(2-methyl-5-m-tolyl-thiazole-4-carbonyl)-3-aza-bicyclo[3.1.0]hex-2-ylmethyl]-benzamide], the IC50 amounted to 17 nM in experiment [1] and 507 nM in experiment [2].

Regarding `Cc1cccc(-c2sc(C)nc2C(=O)N2C[C@H]3C[C@H]3[C@H]2CNC(=O)c2ccc(C)c(C(F)(F)F)c2)c1` (relative stereo) [Example 146, 4-Methyl-N-[(1R*,2S*,5S*)-3-(2-methyl-5-m-tolyl-thiazole-4-carbonyl)-3-aza-bicyclo[3.1.0]hex-2-ylmethyl]-3-trifluoromethyl-benzamide], the concentration for half-maximal inhibition (IC50) in experiment [1] was found to be 55 nM; in experiment [2], 54 nM.

`Cc1cccc(-c2sc(C)nc2C(=O)N2C[C@H]3C[C@H]3[C@H]2CNC(=O)c2ccccc2N2CCOCC2)c1` (relative stereo) [Example 154, N-[(1R*,2S*,5S*)-3-(2-Methyl-5-m-tolyl-thiazole-4-carbonyl)-3-aza-bicyclo[3.1.0]hex-2-ylmethyl]-2-morpholin-4-yl-benzamide]: the figures for the IC50 in experiment [1] and in experiment [2] were 237 nM and 201 nM, respectively.

`Cc1cccc(-c2sc(C)nc2C(=O)N2C[C@H]3C[C@H]3[C@H]2CNC(=O)c2cccc3c2C=CCO3)c1` (relative stereo) [Example 178, 2H-Chromene-5-carboxylic acid [(1R*,2S*,5S*)-3-(2-methyl-5-m-tolyl-thiazole-4-carbonyl)-3-aza-bicyclo[3.1.0]hex-2-ylmethyl]-amide]: the values for the IC50 in experiment [1] and in experiment [2] were 33 nM and 43 nM, respectively.

Take `Cc1cccc(-c2sc(C)nc2C(=O)N2C[C@H]3C[C@H]3[C@H]2CNC(=O)c2cccc3c2OCCN3C)c1` (relative stereo) [Example 179, 4-Methyl-3,4-dihydro-2H-benzo[1,4]oxazine-8-carboxylic acid [(1R*,2S*,5S*)-3-(2-methyl-5-m-tolyl-thiazole-4-carbonyl)-3-aza-bicyclo[3.1.0]hex-2-ylmethyl]-amide]: the results for the IC50 in experiment [1] and in experiment [2] were 76 nM and 237 nM, respectively.

Consider `Cc1cccc(-c2sc(C)nc2C(=O)N2C[C@H]3C[C@H]3[C@H]2CNC(=O)c2cccc3c2NC(=O)CO3)c1` (relative stereo) [Example 181, 3-Oxo-3,4-dihydro-2H-benzo[1,4]oxazine-5-carboxylic acid [(1R*,2S*,5S*)-3-(2-methyl-5-m-tolyl-thiazole-4-carbonyl)-3-aza-bicyclo[3.1.0]hex-2-ylmethyl]-amide], for which the 50% inhibitory concentration (IC50) in experiment [1] stood at 154 nM; in experiment [2], 90 nM.

Take `Cc1cccc(-c2sc(C)nc2C(=O)N2C[C@H]3C[C@H]3[C@H]2CNC(=O)c2cccc3c2CCCO3)c1` (relative stereo) [Example 182, Chroman-5-carboxylic acid [(1R*,2S*,5S*)-3-(2-methyl-5-m-tolyl-thiazole-4-carbonyl)-3-aza-bicyclo[3.1.0]hex-2-ylmethyl]-amide]: the IC50 in experiment [1] turned out to be 196 nM; in experiment [2], 241 nM.

Turning to `Cc1nc(C(=O)N2C[C@H]3C[C@H]3[C@H]2CNC(=O)c2cnc3ccccn23)c(-c2cccc(Cl)c2)s1` (relative stereo) [Example 203, Imidazo[1,2-a]pyridine-3-carboxylic acid {(1R*,2S*,5S*)-3-[5-(3-chloro-phenyl)-2-methyl-thiazole-4-carbonyl]-3-aza-bicyclo[3.1.0]hex-2-ylmethyl}-amide], the half-maximal inhibitory concentration (IC50) amounted to 92 nM in experiment [1] and 42 nM in experiment [2].

Consider `Cc1nc(C(=O)N2C[C@H]3C[C@H]3[C@H]2CNC(=O)c2cnc3sccn23)c(-c2cccc(F)c2)s1` (relative stereo) [Example 214, Imidazo[2,1-b]thiazole-5-carboxylic acid {(1R*,2S*,5S*)-3-[5-(3-fluoro-phenyl)-2-methyl-thiazole-4-carbonyl]-3-aza-bicyclo[3.1.0]hex-2-ylmethyl}-amide], for which the IC50 in experiment [1] worked out at 17 nM; in experiment [2], 37 nM.

Take `Cc1nc(C(=O)N2C[C@H]3C[C@H]3[C@H]2CNC(=O)c2cccc3c2OCO3)c(-c2cccc(F)c2)s1` (relative stereo) [Example 242, Benzo[1,3]dioxole-4-carboxylic acid {(1R*,2S*,5S*)-3-[5-(3-fluoro-phenyl)-2-methyl-thiazole-4-carbonyl]-3-aza-bicyclo[3.1.0]hex-2-ylmethyl}-amide]: the IC50 turned out to be 59 nM in experiment [1] and 963 nM in experiment [2].

As to `Cc1nc(C(=O)N2C[C@H]3C[C@H]3[C@H]2CNC(=O)c2cccc3c2OCCO3)c(-c2cccc(F)c2)s1` (relative stereo) [Example 256, 2,3-Dihydro-benzo[1,4]dioxine-5-carboxylic acid {(1R*,2S*,5S*)-3-[5-(3-fluoro-phenyl)-2-methyl-thiazole-4-carbonyl]-3-aza-bicyclo[3.1.0]hex-2-ylmethyl}-amide], the IC50 in experiment [1] was 14 nM; in experiment [2], 111 nM.

Turning to `Cc1cccc(-c2sc(N)nc2C(=O)N2C[C@H]3C[C@H]3[C@H]2CNC(=O)c2sc3nccn3c2C)c1` (relative stereo) [Example 274, 3-Methyl-imidazo[2,1-b]thiazole-2-carboxylic acid [(1R*,2S*,5S*)-3-(2-amino-5-m-tolyl-thiazole-4-carbonyl)-3-aza-bicyclo[3.1.0]hex-2-ylmethyl]-amide], the results for the IC50 in experiment [1] and in experiment [2] were 87 nM and 31 nM, respectively.

On to `Cc1cccc(-c2sc(N)nc2C(=O)N2C[C@H]3C[C@H]3[C@H]2CNC(=O)c2scc3c2OCCO3)c1` (relative stereo) [Example 284, 2,3-Dihydro-thieno[3,4-b][1,4]dioxine-5-carboxylic acid [(1R*,2S*,5S*)-3-(2-amino-5-m-tolyl-thiazole-4-carbonyl)-3-aza-bicyclo[3.1.0]hex-2-ylmethyl]-amide], for which the 50% inhibitory concentration (IC50) in experiment [1] amounted to 15 nM; in experiment [2], 33 nM.

With `COCCOc1cccc(-c2sc(C)nc2C(=O)N2C[C@H]3C[C@H]3[C@H]2CNC(=O)c2cccc3occc23)c1` (relative stereo) [Example 333, Benzofuran-4-carboxylic acid ((1R*,2S*,5S*)-3-{5-[3-(2-methoxy-ethoxy)-phenyl]-2-methyl-thiazole-4-carbonyl}-3-aza-bicyclo[3.1.0]hex-2-ylmethyl)-amide], the results for the 50% inhibitory concentration (IC50) in experiment [1] and in experiment [2] were 172 nM and 954 nM, respectively.
